{"source": "patent US12156889B2", "about": "“Methods of administering mesenchymal stem cells activated by cytokines for enhancing immunosuppression” (Rutgers, The State University of New Jersey, priority 2012, dated 2024)", "molecules": {"B1": {"name": "IFNβ: type I IFN, printed as IFNα or β (protein, UniProt P01575 22-182, looked up)", "Interferon beta": "INYKQLQLQERTNIRKCQELLEQLNGKINLTYRADFKIPMEMTEKMQKSYTAFAIQEMLQNVFLVFRNNFSSTGWNETIVVRLLDELHQQTVFLKTVLEEKQEERLTWEMSSTALHLKSYYWRVQRYLKLMKYNSYAWMVVRAEIFRNFLIIRRLTRNFQN"}, "B2": {"name": "IFNγ: recombinant mouse interferon-gamma (protein)", "chain": "HGTVIESLESLNNYFNSSGIDVEEKSLFLDIWRNWQKDGDMKILQSQIISFYLRLFEVLKDNQAISNNISVIESHLITTFFSNSKAKKDAFMSIAKFEVNNPQVQRQAFNELIRVVHQLLPESSLRKRKRSRC"}, "B3": {"name": "TNFα: recombinant mouse tumor necrosis factor-alpha (protein)", "chain": "LRSSSQNSSDKPVAHVVANHQVEEQLEWLSQRANALLANGMDLKDNQLVVPADGLYLVYSQVLFKGQGCPDYVLLTHTVSRFAISYQEKVNLLSAVKSPCPKDTPEGAELKPWYEPIYLGGVFQLEKGDQLSAEVNLPKYLDFAESGQVYFGVIAL"}, "B4": {"name": "IL-6: Interleukin-6 (protein, UniProt P08505 25-211, looked up)", "Interleukin-6": "FPTSQVRRGDFTEDTTPNRPVYTTSQVGGLITHVLWEIVEMRKELCNGNSDCMNNDDALAENNLKLPEIQRNDGCYQTGYNQEICLLKISSGLLEYHSYLEYMKNNLKDNKKDKARVLQRDTETLIHIFNQEVKDLHKIVLPTPISNALLTDKLESQKEWLRTKTIQFILKSLEEFLKVTLRSTRQT"}}, "key": {"F1 (C57BL/6xC3H) mice": {"tested_on": "F1 (C57BL/6xC3H) mice", "assay": "Graft-versus-host disease (GvHD) model", "quoted_text": "Recipient mice (C57BL/6xC3H, F1) were lethally irradiated and injected i.v. with C57BL/6 bone marrow cells plus spleenocytes. On days 3 and 7 after bone marrow transplantation, recipients were administered with the indicated MSCs. For some wild-type MSC groups, L-NMMA, anti-IFNγ or a 3-antibody cocktail against TNFα, IL-1α, and IL-1β, (3 Abs) were injected i.p. Survival was monitored daily for 12 weeks.\nGvHD Induction and Modulation by MSCs. C57BL/6×C3H F1 mice at 8-weeks old were lethally irradiated (13 Gy) and after 24 hours were infused by tail vein injection with nucleated bone marrow cells (5×10^6) and splenocytes (5×10^6) isolated from C57BL/6 parent mice. On days 3 and 7 following bone marrow transplantation, the recipients were administrated with 0.5×10^6 MSCs derived from C57BL/6 wild-type, IFNγ R1^−/−, or iNOS^−/− mice via the tail vein. Some wild-type MSC groups were also injected i.p. with the iNOS inhibitor, NG-monomethyl L-arginine (L-NMMA, 500 μg/mouse), anti-IFNγ (400 μg/mouse), or a cocktail of three antibodies against TNFα, IL-1α and IL-1β (200 μg each/mouse) daily for 7 days starting immediately after the first MSC administration. As negative controls, the F1 mice were injected with F1 bone marrow cells. Mice were observed daily for GvHD signs (wasting, ruffled hair, and hunched back) and euthanized upon becoming moribund, thus marking survival time. […]"}, "splenocytes": {"tested_on": "splenocytes", "assay": "Anti-CD3-activated splenocyte proliferation in co-culture with MSCs", "type": "cell-based, mouse", "settings": "for splenocyte proliferation in MSC co-culture with iNOS inhibitor: MSCs + splenocytes + anti-CD3; for effect on immunosuppression by MSCs: indomethacin 10 μM, anti-IL-10 20 μg/ml, anti-TGFβ 20 μg/ml, 1-MT 1 mM", "procedure": "FIGS. 9A, 9B, 9C, 9D, 9E, 9F and 9G. […] Cloned MSCs were first treated with the indicated combinations of recombinant cytokines IFNγ, TNFα, IL-17A (2 ng/ml each) for 12 hr, then cocultured with CD4^+ T cell blasts at a 1:20 ratio (MSC:T cells), and proliferation was assessed by 3H-thymidine incorporation after an additional 12 hr. (FIG. 9B). The mRNA expression of IL-17 receptor family members in MSCs or Raw 264.7 (Macrophages) were examined by RT-PCR. NC: No RT. (FIG. 9C). Surface expression of IL-17RA was detected by immunofluoresence or flow cytometry in cloned MSCs. (FIGS. 9D and 9E). MSCs were first treated with IFNγ and TNFα with or without IL-17A (10 ng/ml), IFNγ and TNFα were supplemented at different cytokine concentrations, for 12 hr, and then cocultured with CD4^+ T cell blasts (FIG. 9D) or T cell hybridoma A1.1 cells (FIG. 9E) at a ratio of 1:20 for 12 hr. T cell proliferation was measured by 3H-Tdr incorporation. (FIG. 9F). MSCs were first treated with IFNγ and TNFα (2 ng/ml) with graded concentrations of IL-17A, for 12 hr, and then cocultured with T cell hybridoma A1.1 cells at a ratio of 1:10 for 12 hr. T cell proliferation was measured by 3H-thymidine incorporation. (FIG. 9G). MSCs were cocultured with fresh C57BL/6 splenocytes plus anti-CD3, anti-CD28, and antibodies against IL-17A, at a 1:20 or 1:40 ratio (MSCs:splenocytes), for 48 hr, and then cell proliferation was assessed by 3H-thymidine incorporation. Proliferation values represent means±SEM of three wells from a representative of three experiments.\nTo examine the possibility that cytokines induce the immunosuppressive capacity of MSCs, these culture conditions were reproduced by combining MSCs and fresh splenocytes at graded ratios in the presence of anti-CD3. […] The immunosuppressive capacity of MSC clones generated from different mouse strains was also examined.\nTo identify the mechanism through which immunosuppression by cytokine-exposed MSCs is effected, the response of anti-CD3-activated splenocytes co-cultured with MSCs (1:20, MSC:splenocytes) in a […] system was examined in various configurations.\nNitric oxide (NO) at high concentrations is known to inhibit T cell responses. It diffuses quickly from its source, but the concentration of the active form drops off within about 100 μm.\nProliferation assay—To assay T cell proliferation, 0.5 μCi of 3H-thymidine was added to each well of 96-well plates 6 hr before termination of the cultures by freezing. Plates were then thawed, cells were harvested, and incorporated 3H-Tdr was assessed with a Wallac Microbeta scintillation counter (Perkin-Elmer, Waltham, MA)."}, "[1]": {"tested_on": "peripheral blood mononuclear cell", "assay": "Peripheral blood mononuclear cell proliferation with human MSCs", "type": "cell-based", "settings": "side-by-side comparison mouse and human MSCs", "procedure": "In the present study, with T cell activation or when exogenous inflammatory cytokines are added, the T cells first enter cell cycle arrest and then die within 24 hours. It was also observed that this apoptosis was dependent on NO, since T cell apoptosis was not observed when iNOS inhibitors were used. Apoptosis was also absent when iNOS^−/− or IFNγ R1^−/− MSCs were used. Therefore, NO-induced cell cycle arrest and apoptosis of T cells are part of the mechanism of immunosuppression mediated by inflammatory cytokine-activated MSCs. Differences between species in inflammatory cytokine-induced expression of iNOS has been noted in macrophages (Schneemann & Schoedon. 2002) Nat. Immunol. 3(2):102). […] Thus, the roles of IDO and NO in the inhibition of T cell proliferation by MSCs from mouse and human were analyzed in a side-by-side comparison."}, "CD4+ T cell blasts": {"tested_on": "CD4+ T cell blasts", "assay": "T cell blast proliferation in co-culture with MSCs (3H-thymidine incorporation)", "type": "cell-based, mouse", "settings": "for induction of immunosuppression by MSCs with recombinant cytokines: 20 ng/ml each, MSC + T cell blasts or MSC + A1.1 cells, 1:20; for T cell proliferation after MSC treatment with low-concentration cytokines: 2 ng/ml each, 12 hr, then 1:20 MSC:T cells", "procedure": "FIG. 1. is a graph showing that immunosuppression by MSCs is induced by proinflammatory cytokines. Cloned MSCs were supplemented with the indicated combinations of recombinant cytokines (20 ng/ml each) for 8 hours, then co-cultured with CD4+ T cell blasts at a 1:20 ratio (MSC:T cells), and proliferation assessed after an additional 8 hours. Values represent means±SD of five wells from a representative of three experiments with different clones. * p<0.001.\nFIGS. 9A, 9B, 9C, 9D, 9E, 9F and 9G. (FIG. 9A). Cloned MSCs were first treated with the indicated combinations of recombinant cytokines IFNγ, TNFα, IL-17A (2 ng/ml each) for 12 hr, then cocultured with CD4^+ T cell blasts at a 1:20 ratio (MSC:T cells), and proliferation was assessed by 3H-thymidine incorporation after an additional 12 hr. (FIG. 9B). The mRNA expression of IL-17 receptor family members in MSCs or Raw 264.7 (Macrophages) were examined by RT-PCR. NC: No RT. (FIG. 9C). Surface expression of IL-17RA was detected by immunofluoresence or flow cytometry in cloned MSCs. (FIGS. 9D and 9E). MSCs were first treated with IFNγ and TNFα with or without IL-17A (10 ng/ml), IFNγ and TNFα were supplemented at different cytokine concentrations, for 12 hr, and then cocultured with CD4^+ T cell blasts (FIG. 9D) or T cell hybridoma A1.1 cells (FIG. 9E) at a ratio of 1:20 for 12 hr. T cell proliferation was measured by 3H-Tdr incorporation. (FIG. 9F). MSCs were first treated with IFNγ and TNFα (2 ng/ml) with graded concentrations of IL-17A, for 12 hr, and then cocultured with T cell hybridoma A1.1 cells at a ratio of 1:10 for 12 hr. T cell proliferation was measured by 3H-thymidine incorporation. (FIG. 9G). MSCs were cocultured with fresh C57BL/6 splenocytes plus anti-CD3, anti-CD28, and antibodies against IL-17A, at a 1:20 or 1:40 ratio (MSCs:splenocytes), for 48 hr, and then cell proliferation was assessed by 3H-thymidine incorporation. Proliferation values represent means±SEM of three wells from a representative of three experiments.\nT cell blasts were generated from CD4^+ T cells purified by negative selection with […] T cell subset isolation kits (R&D Systems). Cells (1×10^6 cells/ml) were activated by plastic-bound anti-CD3 and soluble anti-CD 28 for 48 hours, then cultured with IL-2 (200 U/ml) alone for 48 hours. All T cell cultures were maintained in RPMI-1640 medium supplemented with 10% heat-inactivated FBS, 2 mM glutamine, 100 U/ml penicillin, 100 μ·g/ml streptomycin, and […] (complete medium).\nSince most reported studies of immunosuppression by MSCs are based on their effects on T cell proliferation and cytokine production, the effect of MSCs was first examined on the IL-2-driven proliferation of T cell blasts. Fresh CD4^+ T cell blasts were generated from splenocytes by activation with anti-CD3 followed by expansion with IL-2 for several days (Devadas, et al. (2006) Immunity 25:237-247; Radvanyi, et al. (1996) Cell Immunol. 170:260-273). T cell blasts were added at a 1:20 ratio (MSC:T cells) along with IL-2 (200 U/ml). Cell proliferation was assessed by ^3H-Tdr incorporation after 8 hours. […] MSCs also had no effect on the proliferation of T hybridoma A1.1 cells. These T cells blasts and T hybridoma cells, however, produce no cytokines unless reactivated through the TCR (Fotedar, et al. (1985) J. Immunol. 135(5):3028-33). Thus, in the absence of T cell cytokines, MSCs were unable to suppress T cell proliferation.\nThe effect of IFNγ was then tested directly by adding isolated recombinant IFNγ (20 ng/ml) instead of activated splenocyte supernatant to the mixed co-cultures of MSC+ T cell blasts or MSC+A1.1 cells. […] Therefore, induction of the immunosuppressive function of MSCs by anti-CD3-activated splenocyte supernatant may be due to IFNγ acting in concert with either TNFα; IL-1α; or IL-1β on the MSCs. […]"}, "iNOS": {"tested_on": "iNOS", "assay": "iNOS mRNA in MSCs by real-time PCR", "type": "cell-based, mouse", "settings": "20 ng/ml each", "procedure": "Real-Time PCR. RNA was isolated from cell pellets using an RNEASY Mini Kit. First-strand cDNA synthesis was performed using SENSISCRIPT RT Kit with random hexamer primers (all kits from Qiagen, Valencia, Calif.). mRNA of the genes of interest were quantified by real-time PCR (MX-4000 from Stratagene, La Jolla, Calif.) using SYBR Green Master Mix (Applied Biosystems, Foster City, Calif.). Total amount of mRNA was normalized to endogenous β-actin mRNA. Primers sequences for iNOS were: forward, 5′-CAGCTGGGCTGTACAAACCTT-3′ (SEQ ID NO:1); reverse, 5′-CATTGGAAGTGAAGCGTTTCG-3′ (SEQ ID NO:2). Other primers were from the RT2 PROFILER™ PCR Array Mouse Chemokines & Receptors kit (Superarray, Frederick, Md.).\nAccordingly, it was contemplated that MSCs could upregulate their expression of iNOS and produce NO after exposure to these cytokines. […] […] At 12 hours post-stimulation, the level of iNOS mRNA was more than 7 times greater than β actin message, indicative of extremely high expression."}}}
{"molecule": "CNC(=N)NCCC[C@H](N)C(=O)O", "note": "[L-NMMA, N G-monomethyl-L-arginine]", "values": [{"measurement": "effect on protection by MSC (histology)", "setting": "F1 (C57BL/6xC3H) mice; 14 days after bone marrow transplantation", "result": "almost completely reversed"}, {"measurement": "effect on MSC-mediated protection from GvHD (survival)", "setting": "F1 (C57BL/6xC3H) mice; i.p. daily for 7 days after wild-type MSC infusion", "result": "significant reversal"}, {"measurement": "splenocyte proliferation in MSC co-culture with iNOS inhibitor", "setting": "splenocytes", "result": "completely restored"}, {"measurement": "effect on immunosuppression by mouse MSCs", "setting": "splenocytes; side-by-side comparison mouse and human MSCs", "result": "completely reversed"}]}
{"molecule": "Cn1cc(CC(N)C(=O)O)c2ccccc21", "note": "(racemic) [1-MT, 1-methyl-DL-tryptophan]", "values": [{"measurement": "effect on inhibition of peripheral blood mononuclear cell proliferation by human MSCs", "setting": "[1]", "result": "reversed"}, {"measurement": "effect on immunosuppression by MSCs", "setting": "splenocytes", "result": "no effect"}]}
{"molecule": "COc1ccc2c(c1)c(CC(=O)O)c(C)n2C(=O)c1ccc(Cl)cc1", "note": "[indomethacin, Indomethacin]", "values": [{"measurement": "effect on immunosuppression by MSCs", "setting": "splenocytes", "result": "no effect"}]}
{"molecule": "COC(=O)[C@@H](N)CCCNC(=N)N[N+](=O)[O-]", "note": "[L-NAME]", "values": [{"measurement": "splenocyte proliferation in MSC co-culture with iNOS inhibitor", "setting": "splenocytes", "result": "same effect"}]}
{"molecule": "GM-CSF: Granulocyte-macrophage colony-stimulating factor", "values": [{"measurement": "induction of immunosuppression by MSCs with recombinant cytokines", "setting": "CD4+ T cell blasts", "result": "no effect"}]}
{"molecule": "B1", "values": [{"measurement": "MSC-mediated immunosuppression in MSC+splenocyte+anti-CD3 system", "setting": "splenocytes", "result": "strikingly inhibited"}]}
{"molecule": "B2", "values": [{"measurement": "T cell proliferation after MSC treatment with low-concentration cytokines", "setting": "CD4+ T cell blasts", "result": "cannot induce immunosuppression"}, {"measurement": "induction of immunosuppression by MSCs with recombinant cytokines", "setting": "CD4+ T cell blasts", "result": "did not induce immunosuppression"}, {"measurement": "iNOS mRNA upregulation in MSCs by recombinant cytokines", "setting": "iNOS", "result": "ineffective"}]}
{"molecule": "B3", "values": [{"measurement": "T cell proliferation after MSC treatment with low-concentration cytokines", "setting": "CD4+ T cell blasts", "result": "cannot induce immunosuppression"}, {"measurement": "iNOS mRNA upregulation in MSCs by recombinant cytokines", "setting": "iNOS", "result": "ineffective"}]}
{"molecule": "B4", "values": [{"measurement": "induction of immunosuppression by MSCs with recombinant cytokines", "setting": "CD4+ T cell blasts", "result": "no effect"}]}
